Laboratory results reported in patent US20100105651A1, “ANTAGONISTS OF SNS SODIUM CHANNELS” (priority 2005, published 2010).
Structures can show the parent of a compound that is named as a salt.

biological target: T1, human NaV1.8 (hNaV1.8) ion channel (Homo sapiens, UniProt Q9Y5Y9); experiment: Inhibition of Human NaV1.8 stably expressed in SH-SY-5Y cells (membrane potential dye fluorescence assay); assay type: cell-based; details: SH-SY-5Y cells stably expressing hNaV1.8; FLIPR membrane potential dye; 10 μM pyrethroid, 250 nM TTX; test range 100 μM-0.05 μM; read-out: hNav1.8 IC50
T1 construct: expressed in transfected cells
T1 sequence (Q9Y5Y9 whole entry): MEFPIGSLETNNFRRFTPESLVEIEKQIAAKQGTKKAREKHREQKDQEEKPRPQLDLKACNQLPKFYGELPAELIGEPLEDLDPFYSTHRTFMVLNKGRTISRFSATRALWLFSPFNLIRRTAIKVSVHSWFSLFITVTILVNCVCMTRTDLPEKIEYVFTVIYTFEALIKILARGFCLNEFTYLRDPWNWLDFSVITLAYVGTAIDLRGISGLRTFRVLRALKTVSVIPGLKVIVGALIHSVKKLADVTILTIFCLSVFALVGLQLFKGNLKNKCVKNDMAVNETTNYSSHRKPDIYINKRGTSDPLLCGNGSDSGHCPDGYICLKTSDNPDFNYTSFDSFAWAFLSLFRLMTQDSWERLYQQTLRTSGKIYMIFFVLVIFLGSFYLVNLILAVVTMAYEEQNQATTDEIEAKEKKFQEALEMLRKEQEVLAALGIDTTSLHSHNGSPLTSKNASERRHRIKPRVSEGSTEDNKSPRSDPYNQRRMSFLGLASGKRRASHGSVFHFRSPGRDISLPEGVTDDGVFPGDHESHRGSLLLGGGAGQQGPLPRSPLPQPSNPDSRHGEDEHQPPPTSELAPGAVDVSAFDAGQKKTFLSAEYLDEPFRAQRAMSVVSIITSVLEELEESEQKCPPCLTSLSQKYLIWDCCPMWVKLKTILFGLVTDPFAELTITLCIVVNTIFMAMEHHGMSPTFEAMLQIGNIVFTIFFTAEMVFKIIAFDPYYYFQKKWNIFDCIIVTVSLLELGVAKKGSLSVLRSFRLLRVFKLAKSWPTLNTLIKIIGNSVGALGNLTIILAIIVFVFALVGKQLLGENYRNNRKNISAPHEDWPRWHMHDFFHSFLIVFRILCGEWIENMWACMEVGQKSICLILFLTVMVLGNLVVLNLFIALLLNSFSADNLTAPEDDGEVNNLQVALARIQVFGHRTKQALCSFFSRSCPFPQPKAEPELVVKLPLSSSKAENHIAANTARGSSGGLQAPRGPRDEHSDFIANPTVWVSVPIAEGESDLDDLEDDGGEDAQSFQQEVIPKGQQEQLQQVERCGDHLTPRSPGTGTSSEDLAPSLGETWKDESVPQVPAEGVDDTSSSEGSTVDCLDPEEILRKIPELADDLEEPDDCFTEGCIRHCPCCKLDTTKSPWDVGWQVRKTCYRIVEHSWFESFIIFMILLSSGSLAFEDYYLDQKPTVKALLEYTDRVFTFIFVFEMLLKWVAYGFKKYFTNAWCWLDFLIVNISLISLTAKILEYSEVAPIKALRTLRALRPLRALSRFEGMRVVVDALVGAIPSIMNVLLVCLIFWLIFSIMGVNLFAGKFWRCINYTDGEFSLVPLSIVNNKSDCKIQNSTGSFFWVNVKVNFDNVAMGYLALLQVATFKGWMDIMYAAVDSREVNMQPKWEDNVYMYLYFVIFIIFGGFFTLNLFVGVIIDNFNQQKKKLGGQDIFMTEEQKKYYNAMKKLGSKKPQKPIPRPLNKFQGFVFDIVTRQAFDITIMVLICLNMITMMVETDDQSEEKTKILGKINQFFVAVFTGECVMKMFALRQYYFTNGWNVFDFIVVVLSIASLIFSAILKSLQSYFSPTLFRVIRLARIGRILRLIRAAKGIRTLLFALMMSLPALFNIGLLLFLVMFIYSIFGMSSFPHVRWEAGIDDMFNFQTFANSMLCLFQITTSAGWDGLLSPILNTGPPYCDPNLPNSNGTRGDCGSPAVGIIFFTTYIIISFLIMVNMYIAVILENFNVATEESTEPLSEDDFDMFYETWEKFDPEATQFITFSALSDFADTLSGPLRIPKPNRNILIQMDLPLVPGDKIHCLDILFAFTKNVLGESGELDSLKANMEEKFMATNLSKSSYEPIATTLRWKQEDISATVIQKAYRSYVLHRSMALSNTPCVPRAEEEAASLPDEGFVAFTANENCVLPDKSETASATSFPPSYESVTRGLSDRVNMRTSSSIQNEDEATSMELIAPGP

**Q.** With `CC(c1ccc(F)cc1Cl)N(C)C1CN(C(=O)Nc2cccc(Oc3ccccc3)c2)C1` (stereo not drawn) [Example 100, 3-{[1-(2-Chloro-4-fluoro-phenyl)-ethyl]-methyl-amino}-azetidine-1-carboxylic acid (3-phenoxy-phenyl)-amide] as the compound, how does the IC50 read?
**A.** Its IC50 is 1210 nM.

**Q.** `Cc1ccc(C(C)NC2CN(C(=O)Nc3ccc(Oc4ccccc4)cc3)C2)c(C)c1` (stereo not drawn) [Example 101, 3-[1-(2,4-Dimethyl-phenyl)-ethylamino]-azetidine-1-carboxylic acid (4-phenoxy-phenyl)-amide] was tested. Which IC50 did it give?
**A.** Its IC50 is 290 nM.

**Q.** `CC(NC1CN(C(=O)Nc2cccc(Oc3ccccc3)c2)C1)c1ccccc1Cl` (stereo not drawn) [Example 102, 3-[1-(2-Chloro-phenyl)-ethylamino]-azetidine-1-carboxylic acid (3-phenoxy-phenyl)-amide] was tested. Which IC50 did it give?
**A.** The IC50 was 800 nM.

**Q.** Which IC50 does the source give for `CC(NC1CN(C(=O)Nc2cccc(Oc3ccccc3)c2)C1)c1ccc(F)cc1` (stereo not drawn) [Example 103, 3-[1-(4-Fluoro-phenyl)-ethylamino]-azetidine-1-carboxylic acid (3-phenoxy-phenyl)-amide] here?
**A.** The IC50 was 730 nM.

**Q.** `Cc1ccccc1C(C)NC1CN(C(=O)Nc2ccc(C(F)(F)F)cc2)C1` (stereo not drawn) [Example 104, 3-(1-o-Tolyl-ethylamino)-azetidine-1-carboxylic acid (4-trifluoromethyl-phenyl)-amide] was tested. Which IC50 did it give?
**A.** The IC50 was 2540 nM.

**Q.** For `Cc1ccc(C(C)N(C)C2CN(C(=O)Nc3ccc(Oc4ccccc4)cc3)C2)c(C)c1` (stereo not drawn) [Example 105, 3-{[1-(2,4-Dimethyl-phenyl)-ethyl]-methyl-amino}-azetidine-1-carboxylic acid (4-phenoxy-phenyl)-amide], which IC50 is on record?
**A.** The IC50 was 420 nM.

**Q.** `Cc1ccccc1C(C)NC1CN(C(=O)Nc2cccc(Oc3ccccc3)c2)C1` (stereo not drawn) [Example 106, 3-(1-o-Tolyl-ethylamino)-azetidine-1-carboxylic acid (3-phenoxy-phenyl)-amide] was tested. Which IC50 did it give?
**A.** Its IC50 is 560 nM.

**Q.** `Cc1ccccc1C(C)N(C)C1CN(C(=O)Nc2cccc(Oc3ccccc3)c2)C1` (stereo not drawn) [Example 107, 3-[Methyl-(1-o-tolyl-ethyl)-amino]-azetidine-1-carboxylic acid (3-phenoxy-phenyl)-amide] was tested. Which IC50 did it give?
**A.** Its IC50 is 510 nM.

**Q.** Which IC50 does the source give for `Cc1ccccc1C(C)NC1CN(C(=O)Nc2ccc(Oc3ccc(F)cc3)cc2)C1` (stereo not drawn) [Example 108, 3-(1-o-Tolyl-ethylamino)-azetidine-1-carboxylic acid [4-(4-fluoro-phenoxy)-phenyl]-amide] here?
**A.** The IC50 was 270 nM.

**Q.** With `CC(c1ccc(F)cc1)N(C)C1CN(C(=O)Nc2cccc(Oc3ccccc3)c2)C1` (stereo not drawn) [Example 109, 3-{[1-(4-Fluoro-phenyl)-ethyl]-methyl-amino}-azetidine-1-carboxylic acid (3-phenoxy-phenyl)-amide] as the compound, how does the IC50 read?
**A.** The IC50 was 470 nM.

**Q.** For `Cc1ccccc1C(C)N(C)C1CN(C(=O)Nc2ccc(C(F)(F)F)cc2)C1` (stereo not drawn) [Example 110, 3-[Methyl-(1-o-tolyl-ethyl)-amino]-azetidine-1-carboxylic acid (4-trifluoromethyl-phenyl)-amide], which IC50 is on record?
**A.** The IC50 was 2240 nM.

**Q.** How did the IC50 turn out when `Cc1cc(F)ccc1C(C)NC1CN(C(=O)Nc2ccc(Oc3ccccc3)cc2)C1` (stereo not drawn) [Example 111, 3-[1-(4-Fluoro-2-methyl-phenyl)-ethylamino]-azetidine-1-carboxylic acid (4-phenoxy-phenyl)-amide] was run?
**A.** Its IC50 is 630 nM.

**Q.** Which IC50 does the source give for `Cc1cc(F)ccc1C(C)NC1CN(C(=O)Nc2cccc(Oc3ccccc3)c2)C1` (stereo not drawn) [Example 112, 3-[1-(4-Fluoro-2-methyl-phenyl)-ethylamino]-azetidine-1-carboxylic acid (3-phenoxy-phenyl)-amide] here?
**A.** Its IC50 is 660 nM.

**Q.** With `Cc1cc(F)ccc1C(C)NC1CN(C(=O)Nc2cccc(C(F)(F)F)c2)C1` (stereo not drawn) [Example 113, 3-[1-(4-Fluoro-2-methyl-phenyl)-ethylamino]-azetidine-1-carboxylic acid (3-trifluoromethyl-phenyl)-amide] as the compound, how does the IC50 read?
**A.** The IC50 was 2840 nM.

**Q.** `Cc1cc(F)ccc1C(C)NC1CN(C(=O)Nc2ccc(C(F)(F)F)cc2)C1` (stereo not drawn) [Example 114, 3-[1-(4-Fluoro-2-methyl-phenyl)-ethylamino]-azetidine-1-carboxylic acid (4-trifluoromethyl-phenyl)-amide] was tested. Which IC50 did it give?
**A.** The IC50 was 2300 nM.

**Q.** How did the IC50 turn out when `COc1ccc(C(C)NC2CN(C(=O)Nc3ccc(C(F)(F)F)cc3)C2)cc1` (stereo not drawn) [Example 115, 3-[1-(4-Methoxy-phenyl)-ethylamino]-azetidine-1-carboxylic acid (4-trifluoromethyl-phenyl)-amide] was run?
**A.** The IC50 was 2430 nM.

**Q.** How did the IC50 turn out when `Cc1cc(F)ccc1C(C)N(C)C1CN(C(=O)Nc2ccc(Oc3ccccc3)cc2)C1` (stereo not drawn) [Example 117, 3-{[1-(4-Fluoro-2-methyl-phenyl)-ethyl]-methyl-amino}-azetidine-1-carboxylic acid (4-phenoxy-phenyl)-amide] was run?
**A.** Its IC50 is 890 nM.

**Q.** Which IC50 does the source give for `Cc1cccc(C(C)NC2CN(C(=O)Nc3ccc(Oc4ccccc4)cc3)C2)c1` (stereo not drawn) [Example 118, 3-(1-m-Tolyl-ethylamino)-azetidine-1-carboxylic acid (4-phenoxy-phenyl)-amide] here?
**A.** The IC50 was 430 nM.

**Q.** With `Cc1cc(F)ccc1C(C)NC1CN(C(=O)Nc2ccc(Oc3ccc(F)cc3)cc2)C1` (stereo not drawn) [Example 119, 3-[1-(4-Fluoro-2-methyl-phenyl)-ethylamino]-azetidine-1-carboxylic acid [4-(4-fluoro-phenoxy)-phenyl]-amide] as the compound, how does the IC50 read?
**A.** Its IC50 is 460 nM.

**Q.** For `CC(NC1CN(C(=O)Nc2ccc(Oc3ccccc3)cc2)C1)c1ccc(N2CCCCC2)cc1` (stereo not drawn) [Example 120, 3-[1-(4-Piperidin-1-yl-phenyl)-ethylamino]-azetidine-1-carboxylic acid (4-phenoxy-phenyl)-amide], which IC50 is on record?
**A.** The IC50 was 590 nM.

**Q.** Which IC50 does the source give for `Cc1ccc(C(C)NC2CN(C(=O)Nc3ccc(Oc4ccccc4)cc3)C2)cc1` (stereo not drawn) [Example 121, 3-(1-p-Tolyl-ethylamino)-azetidine-1-carboxylic acid (4-phenoxy-phenyl)-amide] here?
**A.** Its IC50 is 400 nM.

**Q.** `Cc1ccc(C(C)NC2CN(C(=O)Nc3ccc(C(F)(F)F)cc3)C2)cc1` (stereo not drawn) [Example 122, 3-(1-p-Tolyl-ethylamino)-azetidine-1-carboxylic acid (4-trifluoromethyl-phenyl)-amide] was tested. Which IC50 did it give?
**A.** The IC50 was 1700 nM.

**Q.** How did the IC50 turn out when `O=C(Nc1ccc(Oc2ccccc2)cc1)N1CC(NC2COc3ccccc32)C1` (stereo not drawn) [Example 123, 3-(2,3-Dihydro-benzofuran-3-ylamino)-azetidine-1-carboxylic acid (4-phenoxy-phenyl)-amide] was run?
**A.** Its IC50 is 1700 nM.

**Q.** Which IC50 does the source give for `CC(NC1CN(C(=O)Nc2ccc(C(F)(F)F)cc2)C1)c1ccccc1Cl` (stereo not drawn) [Example 124, 3-[1-(2-Chloro-phenyl)-ethylamino]-azetidine-1-carboxylic acid (4-trifluoromethyl-phenyl)-amide] here?
**A.** The IC50 was 2480 nM.

**Q.** How did the IC50 turn out when `CC(NC1CN(C(=O)Nc2ccc(C(F)(F)F)cc2)C1)c1ccc(C#N)cc1` (stereo not drawn) [Example 126, 3-[1-(4-Cyano-phenyl)-ethylamino]-azetidine-1-carboxylic acid (4-trifluoromethyl-phenyl)-amide] was run?
**A.** The IC50 was 23700 nM.

**Q.** How did the IC50 turn out when `CC(NC1CN(C(=O)Nc2ccc(Oc3ccc(F)cc3)cc2)C1)c1ccc(C#N)cc1` (stereo not drawn) [Example 127, 3-[1-(4-Cyano-phenyl)-ethylamino]-azetidine-1-carboxylic acid [4-(4-fluoro-phenoxy)-phenyl]-amide] was run?
**A.** The IC50 was 2110 nM.

**Q.** Which IC50 does the source give for `O=C(Nc1ccc(Oc2ccccc2)cc1)N1CC(NCc2c(F)cccc2F)C1` [Example 128, 3-(2,6-Difluoro-benzylamino)-azetidine-1-carboxylic acid (4-phenoxy-phenyl)-amide] here?
**A.** The IC50 was 830 nM.

**Q.** With `O=C(Nc1ccc(Oc2ccc(F)cc2)cc1)N1CC(NCc2c(F)cccc2F)C1` [Example 129, 3-(2,6-Difluoro-benzylamino)-azetidine-1-carboxylic acid [4-(4-fluoro-phenoxy)-phenyl]-amide] as the compound, how does the IC50 read?
**A.** Its IC50 is 1490 nM.

**Q.** For `CC(NC1CN(C(=O)Nc2ccc(Oc3ccccc3)cc2)C1)c1c(F)cccc1F` (stereo not drawn) [Example 130, 3-[1-(2,6-Difluoro-phenyl)-ethylamino]-azetidine-1-carboxylic acid (4-phenoxy-phenyl)-amide], which IC50 is on record?
**A.** Its IC50 is 750 nM.

**Q.** Which IC50 does the source give for `CC(NC1CN(C(=O)Nc2ccc(Oc3ccc(F)cc3)cc2)C1)c1c(F)cccc1F` (stereo not drawn) [Example 131, 3-[1-(2,6-Difluoro-phenyl)-ethylamino]-azetidine-1-carboxylic acid [4-(4-fluoro-phenoxy)-phenyl]-amide] here?
**A.** The IC50 was 530 nM.

**Q.** Which IC50 does the source give for `O=C(Nc1ccc(Oc2ccccc2F)cc1)N1CC(NC2CCc3cc(Cl)ccc32)C1` (stereo not drawn) [Example 133, 3-(5-Chloro-indan-1-ylamino)-azetidine-1-carboxylic acid [4-(2-fluoro-phenoxy)-phenyl]-amide] here?
**A.** Its IC50 is 1550 nM.

**Q.** With `COc1ccc2c(c1)CCC2NC1CN(C(=O)Nc2ccc(Oc3cccc(F)c3)cc2)C1` (stereo not drawn) [Example 134, 3-(5-Methoxy-indan-1-ylamino)-azetidine-1-carboxylic acid [4-(3-fluoro-phenoxy)-pheny]-amide] as the compound, how does the IC50 read?
**A.** Its IC50 is 170 nM.

**Q.** Which IC50 does the source give for `O=C(Nc1ccc(Oc2ccc(F)cc2)nc1)N1CC(NC2CCc3cc(F)ccc32)C1` (stereo not drawn) [Example 135, 3-(5-Fluoro-indan-1-ylamino)-azetidine-1-carboxylic acid [6-(4-fluoro-phenoxy)-pyridin-3-yl]-amide methanesulfonate salt] here?
**A.** Its IC50 is 2170 nM.

**Q.** Which IC50 does the source give for `O=C(Nc1ccc(Oc2ccc(F)cc2)cc1)N1CC(NC2CCc3cc(F)ccc32)C1` (stereo not drawn) [Example 136, 3-(5-Fluoro-indan-1-ylamino)-azetidine-1-carboxylic acid [4-(4-fluoro-phenoxy)-phenyl]-amide methanesulfonate salt] here?
**A.** The IC50 was 210 nM.

**Q.** Which IC50 does the source give for `O=C(Nc1ccc(Oc2ccccc2)cc1)N1CC(NC2CCc3cc(F)ccc32)C1` (stereo not drawn) [Example 137, 3-(5-Fluoro-indan-1-ylamino)-azetidine-1-carboxylic acid (4-phenoxy-phenyl)-amide fumarate salt] here?
**A.** Its IC50 is 270 nM.

**Q.** How did the IC50 turn out when `O=C(Nc1ccc(Oc2ccc(F)cc2)cc1)N1CC(NC2CCc3cc(Cl)ccc32)C1` (stereo not drawn) [Example 138, 3-(5-Chloro-indan-1-ylamino)-azetidine-1-carboxylic acid [4-(4-fluoro-phenoxy)-phenyl]-amide methanesulfonate salt] was run?
**A.** The IC50 was 430 nM.
